Consider eight compounds from ChEMBL document CHEMBL1148416, “2-Alkylsulfanyl estrogen derivatives: synthesis of a novel class of multi-targeted anti-tumour agents” (Bioorg Med Chem Lett, 2004).

The test has as its system MCF7. Briefly: Anti-proliferative activity against MCF-7 human breast cancer cells was determined by using MCF-7 plate assay. In kind it is functional, cell-based.
As a reminder, the IC50 is the midpoint of a concentration-inhibition curve. `CSc1cc2c(cc1O)CC[C@@H]1[C@@H]2CC[C@]2(C)[C@@H](O)CC[C@@H]12`: it took 3.96 µM to reach half-maximal inhibition (IC50). Compound `CSc1cc2c(cc1OS(N)(=O)=O)CC[C@@H]1[C@@H]2CC[C@]2(C)[C@@H](O)CC[C@@H]12` returned an IC50 of 0.43 µM.

Turning to `CCSc1cc2c(cc1OS(N)(=O)=O)CC[C@@H]1[C@@H]2CC[C@]2(C)[C@@H](O)CC[C@@H]12`, the IC50 was 35.3 µM. The result for `CSc1cc2c(cc1OS(N)(=O)=O)CCC1[C@@H]2CC[C@]2(C)C(=O)CC[C@@H]12` (single isomer, unassigned) reads 0.4 µM; that for `CSc1cc2c(cc1O)CCC1[C@@H]2CC[C@]2(C)C(=O)CC[C@@H]12` (single isomer, unassigned), 33.4 µM.

For `CCSc1cc2c(cc1O)CCC1[C@@H]2CC[C@]2(C)C(=O)CC[C@@H]12` (single isomer, unassigned), the half-maximal inhibitory concentration (IC50) came out at 31.9 µM. As to `C[C@]12CC[C@@H]3c4ccc(OS(N)(=O)=O)cc4CCC3[C@@H]1CCC2=O` (single isomer, unassigned) [EMATE], the 50% inhibitory concentration (IC50) came out at 22.8 µM. In turn, `COc1cc2c(cc1O)CC[C@@H]1[C@@H]2CC[C@]2(C)[C@@H](O)CC[C@@H]12` [2-METHOXYESTRADIOL] displayed a half-maximal inhibitory concentration (IC50) of 2.39 µM.
